These results are taken from patent US20260258064A1 (SIRONAX LTD., priority 2023, published 2026).

pIC50: −log10 of the molar value.

The assay concerns the target T1, SARM1 (50-724) (Homo sapiens, UniProt Q6SZW1).
T1 construct: Purified SARM1 (50-724) with a final concentration of 2 nM was pre-incubated with a test compound
T1 sequence (Q6SZW1 50-724): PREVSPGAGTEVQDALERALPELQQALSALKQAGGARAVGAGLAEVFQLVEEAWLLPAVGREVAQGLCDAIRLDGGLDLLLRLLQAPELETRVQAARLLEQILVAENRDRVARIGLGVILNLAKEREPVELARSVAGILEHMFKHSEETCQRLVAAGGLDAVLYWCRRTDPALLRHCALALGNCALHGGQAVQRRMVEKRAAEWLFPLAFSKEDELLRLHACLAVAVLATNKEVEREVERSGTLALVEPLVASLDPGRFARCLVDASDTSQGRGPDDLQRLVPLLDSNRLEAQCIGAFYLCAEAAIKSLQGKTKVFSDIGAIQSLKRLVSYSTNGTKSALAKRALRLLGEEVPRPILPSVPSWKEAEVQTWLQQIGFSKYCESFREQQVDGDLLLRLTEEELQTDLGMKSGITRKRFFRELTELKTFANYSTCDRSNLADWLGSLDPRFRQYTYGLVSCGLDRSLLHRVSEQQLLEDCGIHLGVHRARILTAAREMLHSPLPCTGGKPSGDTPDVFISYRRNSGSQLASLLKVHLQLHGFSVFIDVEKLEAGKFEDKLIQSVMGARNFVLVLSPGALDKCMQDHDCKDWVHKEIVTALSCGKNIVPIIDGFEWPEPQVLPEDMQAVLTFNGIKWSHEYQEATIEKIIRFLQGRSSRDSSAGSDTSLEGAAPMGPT
Put plainly: SARM1 (50-724) enzymatic assay (LC-MS/MS). It counts as biochemical. Particulars: Purified SARM1 (50-724) 2 nM, NMN as activator, NAD+ as substrate, 1 h at room temperature, read-out: IC50 (SARM1 inhibitory activity). The essentials: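 Reaction buffer was Dulbecco's PBS. Compound and 2 nM human SARM1 (50-724) were pre-incubated 15 min at room temperature, then […] NAD^+ and 200 µM NMN activator were added for 1 h at room temperature. Acetonitrile (70%) stop, LC-MS/MS read-out, IC50 values.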
One may read the pIC50 as −log10 of the IC50, conventionally taken in molar units. With `Fc1ccc(-n2cnnc2-c2nc3cc(C(F)(F)F)ccc3[nH]2)c(OC(F)(F)F)c1` [Compound 189, 2-(4-(4-fluoro-2-(trifluoromethoxy)phenyl)-4H-1,2,4-triazol-3-yl)-5-(trifluoromethyl)-1H-benzo[d]imidazole], the pIC50 was at least 7.00.
With `FC(F)(F)Oc1cnccc1-n1cnnc1-c1nc2cc(C(F)(F)F)ccc2[nH]1` [Compound 190] the figure was at least 7.00.
With `CC1(c2ccc3[nH]c(-c4nncn4-c4cccc(F)c4Cl)nc3c2)CC(O)C1` (stereo not shown) [Compound 191, 3-(2-(4-(2-chloro-3-fluorophenyl)-4H-1,2,4-triazol-3-yl)-1H-benzo[d]imidazol-5-yl)-3-methylcyclobutan-1-ol] the figure was at least 7.00; with `CS(=N)(=O)Cc1nnc(-c2nc3cc(Cl)cc(F)c3[nH]2)n1-c1cccc(F)c1Cl` (stereo not shown) [Compound 192, ((4-(2-chloro-3-fluorophenyl)-5-(5-chloro-7-fluoro-1H-benzo[d]imidazol-2-yl)-4H-1,2,4-triazol-3-yl)methyl)(imino)(methyl)-16-sulfanone], at least 7.00; with `CCS(=O)(=O)Cc1nnc(-c2nc3cc(Cl)cc(F)c3[nH]2)n1-c1cccc(F)c1Cl` [Compound 193, 5-chloro-2-(4-(2-chloro-3-fluorophenyl)-5-((ethylsulfonyl)methyl)-4H-1,2,4-triazol-3-yl)-7-fluoro-1H-benzo[d]imidazole], at least 7.00.
Then `O=S(=O)(Cc1nnc(-c2nc3cc(Cl)cc(F)c3[nH]2)n1-c1cccc(F)c1Cl)C1CC1` [Compound 194, 5-chloro-2-(4-(2-chloro-3-fluorophenyl)-5-((cyclopropylsulfonyl)methyl)-4H-1,2,4-triazol-3-yl)-7-fluoro-1H-benzo[d]imidazole], with at least 7.00.
Turning to `O=S1(=O)Cc2ccc3[nH]c(-c4nncn4-c4cccc(F)c4Cl)nc3c2C1` [Compound 198, 2-(4-(2-chloro-3-fluorophenyl)-4H-1,2,4-triazol-3-yl)-6,8-dihydro-3H-thieno[3',4':3,4]benzo[1,2-d]imidazole 7,7-dioxide], the pIC50 is below 6.00.
Then `NC(=O)Cn1cc(-c2cccc(F)c2Cl)c(-c2nc3cc(C(F)(F)F)ccc3[nH]2)cc1=O` [Compound 199, 2-(5-(2-chloro-3-fluorophenyl)-2-oxo-4-(5-(trifluoromethyl)-1H-benzo[d]imidazol-2-yl)pyridin-1(2H)-yl)acetamide], with at least 7.00; and `Fc1cc(C(F)(F)F)cc2nc(-c3nncn3-c3cc(C(F)F)ccc3Cl)[nH]c12` [Compound 200, 2-(4-(2-chloro-5-(difluoromethyl)phenyl)-4H-1,2,4-triazol-3-yl)-7-fluoro-5-(trifluoromethyl)-1H-benzo[d]imidazole], with at least 7.00.
With `O=S1(=O)CCN(c2ccc(Cl)c(-n3cnnc3-c3nc4cc(C(F)(F)F)ccc4[nH]3)n2)CC1` [Compound 201, 4-(5-chloro-6-(3-(5-(trifluoromethyl)-1H-benzo[d]imidazol-2-yl)-4H-1,2,4-triazol-4-yl)pyridin-2-yl)thiomorpholine 1,1-dioxide], the pIC50 was at least 7.00.
Consider `CN1CCC(n2cnnc2-c2nc3cc(C(F)(F)F)ccc3[nH]2)C1` (stereo not shown) [Compound 202, 2-(4-(1-methylpyrrolidin-3-yl)-4H-1,2,4-triazol-3-yl)-5-(trifluoromethyl)-1H-benzo[d]imidazole], for which the pIC50 is below 6.00.
Consider `CS(=O)(=O)Cc1nnc(-c2nc3cc(C4(F)CC4)cc(F)c3[nH]2)n1-c1cccc(F)c1Cl` [Compound 203, 2-(4-(2-chloro-3-fluorophenyl)-5-((methylsulfonyl)methyl)-4H-1,2,4-triazol-3-yl)-7-fluoro-5-(1-fluorocyclopropyl)-1H-benzo[d]imidazole], for which the pIC50 is at least 7.00.
With `CC(C#N)(CO)c1ccc2[nH]c(-c3nncn3-c3cccc(F)c3Cl)nc2c1` (stereo not shown) [Compound 204, 2-(2-(4-(2-chloro-3-fluorophenyl)-4H-1,2,4-triazol-3-yl)-1H-benzo[d]imidazol-5-yl)-3-hydroxy-2-methylpropanenitrile] the figure was at least 7.00; with `CNC(=O)c1cc(F)c(Cl)c(-n2cnnc2-c2nc3cc(C(F)(F)F)cc(F)c3[nH]2)c1` [Compound 205, 4-chloro-3-fluoro-5-(3-(7-fluoro-5-(trifluoromethyl)-1H-benzo[d]imidazol-2-yl)-4H-1,2,4-triazol-4-yl)-N-methylbenzamide], at least 7.00.
With `Oc1cc(F)c(Cl)c(-n2cnnc2-c2nc3cc(C(F)(F)F)cc(F)c3[nH]2)c1` [Compound 206, 4-chloro-3-fluoro-5-(3-(7-fluoro-5-(trifluoromethyl)-1H-benzo[d]imidazol-2-yl)-4H-1,2,4-triazol-4-yl)phenol] the figure was at least 7.00; with `Oc1cc(F)c(Cl)c(-n2cnnc2-c2nc3cc(C(F)(F)F)ccc3[nH]2)c1` [Compound 207, 4-chloro-3-fluoro-5-(3-(5-(trifluoromethyl)-1H-benzo[d]imidazol-2-yl)-4H-1,2,4-triazol-4-yl)phenol], at least 7.00; with `CN1CCN(c2ccc(Cl)c(-n3cnnc3-c3nc4cc(C(F)(F)F)ccc4[nH]3)n2)CC1=O` [Compound 208, 4-(5-chloro-6-(3-(5-(trifluoromethyl)-1H-benzo[d]imidazol-2-yl)-4H-1,2,4-triazol-4-yl)pyridin-2-yl)-1-methylpiperazin-2-one], at least 7.00.
`FC(F)(F)c1ccc2[nH]c(-c3nncn3-c3c(Cl)ccc4[nH]ncc34)nc2c1` [Compound 209, 5-chloro-4-(3-(5-(trifluoromethyl)-1H-benzo[d]imidazol-2-yl)-4H-1,2,4-triazol-4-yl)-1H-indazole]: the pIC50 is at least 7.00.
Then `COc1cc(-n2cnnc2-c2nc3cc(C(F)(F)F)ccc3[nH]2)c(OC(F)(F)F)cn1` [Compound 210, 2-(4-(2-methoxy-5-(trifluoromethoxy)pyridin-4-yl)-4H-1,2,4-triazol-3-yl)-5-(trifluoromethyl)-1H-benzo[d]imidazole], with at least 7.00; and `NC(=O)c1cc(-n2cnnc2-c2nc3cc(C(F)(F)F)ccc3[nH]2)c(Cl)cn1` [Compound 211, 5-chloro-4-(3-(5-(trifluoromethyl)-1H-benzo[d]imidazol-2-yl)-4H-1,2,4-triazol-4-yl)picolinamide], with at least 7.00.
In the case of `Fc1ccc(OC(F)(F)F)c(-n2cnnc2-c2nc3cc(C(F)(F)F)cc(F)c3[nH]2)c1` [Compound 213, 7-fluoro-2-(4-(5-fluoro-2-(trifluoromethoxy)phenyl)-4H-1,2,4-triazol-3-yl)-5-(trifluoromethyl)-1H-benzo[d]imidazole], the pIC50 is at least 7.00.
In the case of `FC(F)C12CC(n3cnnc3-c3nc4cc(C(F)(F)F)ccc4[nH]3)(C1)C2` [Compound 214, 2-(4-(3-(difluoromethyl)bicyclo[1.1.1]pentan-1-yl)-4H-1,2,4-triazol-3-yl)-5-(trifluoromethyl)-1H-benzo[d]imidazole], the pIC50 was below 6.00.
Then `FC(F)(Cl)Oc1cnccc1-n1cnnc1-c1nc2cc(C(F)(F)F)ccc2[nH]1` [Compound 215, 2-(4-(3-(chlorodifluoromethoxy)pyridin-4-yl)-4H-1,2,4-triazol-3-yl)-5-(trifluoromethyl)-1H-benzo[d]imidazole], with at least 7.00.
With `NC(=O)c1nc(Cl)c(-n2cnnc2-c2nc3cc(C(F)(F)F)cc(F)c3[nH]2)s1` [Compound 216, 4-chloro-5-(3-(7-fluoro-5-(trifluoromethyl)-1H-benzo[d]imidazol-2-yl)-4H-1,2,4-triazol-4-yl)thiazole-2-carboxamide] the figure was 6.30 to 7.00.
`CS(=O)(=O)c1ccc(OC(F)(F)F)c(-n2cnnc2-c2nc3cc(C(F)(F)F)cc(F)c3[nH]2)c1` [Compound 217, 7-fluoro-2-(4-(5-(methylsulfonyl)-2-(trifluoromethoxy)phenyl)-4H-1,2,4-triazol-3-yl)-5-(trifluoromethyl)-1H-benzo[d]imidazole]: the pIC50 was at least 7.00.
`Fc1cc(C(F)(F)F)cc2nc(-c3nncn3-c3cc(Cl)ncc3OC(F)(F)F)[nH]c12` [Compound 218, 2-(4-(2-chloro-5-(trifluoromethoxy)pyridin-4-yl)-4H-1,2,4-triazol-3-yl)-7-fluoro-5-(trifluoromethyl)-1H-benzo[d]imidazole]: the pIC50 was at least 7.00.
With `CC(C)(C)Oc1cnccc1-n1cnnc1-c1nc2cc(C(F)(F)F)ccc2[nH]1` [Compound 219, 2-(4-(3-(tert-butoxy)pyridin-4-yl)-4H-1,2,4-triazol-3-yl)-5-(trifluoromethyl)-1H-benzo[d]imidazole] the figure was 6.30 to 7.00; with `FC(F)(F)c1ccc2[nH]c(-c3nncn3-c3cnncc3C3CC3)nc2c1` [Compound 220, 2-(4-(5-cyclopropylpyridazin-4-yl)-4H-1,2,4-triazol-3-yl)-5-(trifluoromethyl)-1H-benzo[d]imidazole], 6.30 to 7.00.
